Test results reported in US11306361B2, “Pathology prognosis method” (CENTRE NATIONAL DE LA RECHERCHE SCIENTIFIQUE, priority 2015, dated 2022).
Numbered stars: 1 amine (or outer) side, 2 acyl side, 3 side chain; on linkers, the order of the positions; unused ones are H or OH. Bridge positions count the residues as written; N and C are the ends. Square brackets hold non-standard residues; d marks the D form. Peptide text beside a SMILES is read from it. I, II: the chains in the order shown. Actinocin(9to1) = Cc1c2oc3c(C)ccc(C(=O)[*:1])c3nc-2c(C(=O)[*:2])c(N)c1=O; NMeV = CN[C@H](C(=O)O)C(C)C; Sar = CNCC(=O)O

How the values were obtained:
dopaminergic neurons = experiment: 6-OHDA lesions, survival of mice; type: in vivo, mouse; conditions: FIG. 9
Description: The mice were anesthetized with a mixture of ketamine (Imalgene 500, 50 mg/mL, Merial), 0.9% saline solution (weight/vol) and xylazine (Rompun 2%, […], Bayer) (2:2:1, i.p., 0.1 mL/30 g) and mounted on a stereotaxic apparatus. The 6-OHDA-HCl (Sigma) was dissolved in 0.02% ascorbic acid in a saline solution at a concentration of 3 μg of 6-OHDA/μL. Each mouse received two unilateral injections of 6-OHDA (2 μL/injection) in the right dorsal striatum, according to the following coordinates (in mm): anteroposterior +1, mediolateral −2.1, dorsal ventral −3.1 and anteroposterior +0.3, mediolateral −2.3, and dorsal ventral −3.1. The animals are then released and received a daily injection of glucose solution (50 mg/mL, subcutaneous).

[1] = test system: MEF cells transformed with RAS-G12V/DNP53 and MMTV-ErbB2 tumor cells; experiment: Measurement of cell death (apoptosis) in transformed tumor cells; type: cell-based, mouse; conditions: for apoptosis rates versus quantity of Cyclin D1: MEFs transformed with P53 negative dominant and RAS G12V, null, low or high Cyclin D1, FIG. 23
Description: (§1) Cell death is induced by exposure to actinomycin D A9415, Sigma, for 6 h, 5-Fluoro uracil (Fluorouracil Winthrop, Sanofi-Aventis) for 24 h, or ethanol (20821.330, VWR) for 6 h and inhibited by exposure to Q-VD-Oph (SML0063, Sigma).
(§2) The cells are washed twice in PBS 1×, unstuck with trypsin and reacted in a marking buffer (10 mM of Hepes pH=7.4, sodium chloride 150 mM, KCl 5 mM, MgCl2 1 mM, CaCl2 1.8 mM). Then the cells were marked with […]-fluorescein isothiocyanate (BD Biosciences) according to the manufacturer's instructions in 0.5 μg/mL of propidium iodide (PI; Sigma-Aldrich P-4170). After 15 min. of incubation in the dark, the cells are analyzed by flux cytometry. The living cells are Annexin V and PI double negatives and the apoptotic cells are positive for Annexin V and negative for PI.

[2] = test system: RAS or ErbB2 cancer cells; experiment: Western blot of cleaved PARP in tumor cells; type: cell-based, mouse; conditions: after treatment with 5-FU; limited by Cyclin D1; FIG. 27
Excerpt: (§3) The antibodies used are the following: anti-HA (HA.11 Clone 16B12, Eurogentec or Anti-HA EPITOPE TAG-600-401-384, Tebu-bio or Hemagglutinin (HA) Rabbit Polyclonal Antibody, Life Technologies), anti-Cyclin D1 (sc-450, Santa Cruz or MS-210-PABX (AB1), Fisher Scientific or RB-010-PABX (AB3), Fisher scientific), anti-RB total (sc-74562, Santa Cruz), anti-Phospho-RB (Ser780) (9307, Cell signaling), anti-Actin (ab6276, Abcam), anti-Tubulin (T9026, Sigma-Aldrich), anti-Ras (BD610002, BD Biosciences), anti-FLAG (F7425, Sigma-Aldrich), anti-cleaved PARP (ab32064, Abcam), anti-VASA (ab13840, Abcam), anti-Thyrosine Hydroxylase (MAB318, Merck Millipore). The secondary antibodies used are coupled with peroxidase (signaling), and the detection of the complexes is done using the enhanced chemiluminescence detection kit (Millipore).

[3] = test system: MEFs transformed with the mouse T antigen; experiment: Apoptosis and PARP cleavage in cell lines immortalized by the T antigen; type: cell-based; conditions: FIG. 15; for induced apoptosis as a function of Cyclin D1 level: T antigen immortalized cells, wild vs Ntag/Ntag vs −/−; for cleavage of the PARP: cells with low Cyclin D1 level
Excerpt: as §3, §1, §2

male germinal cells = experiment: Methoxyacetic acid treatment, mouse testicles; type: in vivo
Description: The mice were sacrificed 14 hours after treatment, for the postmortem analyses.
as §3

substantia nigra = experiment: Methamphetamine model of dopaminergic neurons in mice
Description: The methamphetamine was dissolved in a saline solution at 0.9% (weight/volume) sodium chloride, and injected at a rate of 10 mL/Kg. Several doses of methamphetamine (3 doses of 5 mg/kg at 3 h intervals) were injected intraperitoneally, the first dose being injected at noon. The control mice were treated with the saline solution alone. The mice were sacrificed 24 hours after treatment, for the postmortem analyses.
The mouse organs were washed with PBS 1× at 37° C. and lysed in HTRF buffer (Tris 10 mM, EDTA 1 mM, 0.05% NP-40) using a cell homogenizer. After centrifugation at 16000 g for 5 min., the samples were normalized by adjusting the total quantity of DNA (nanodrop, Thermo Scientific) at 500 ng/mL.

[4] = mice expressing N-terminal tagged Cyclin D1 relative to wild mice, intraperitoneal injection

Compound: NCCc1cc(O)c(O)cc1O [6-OHDA, 6-hydroxy dopamine]
- survival of wild mice (dopaminergic neurons; CCND1+/+ mice, intrastriatal injection): survive treatment
- survival of mice expressing N-terminal tagged Cyclin D1 (dopaminergic neurons; mice expressing little Cyclin D1, intrastriatal injection): die several days after

Compound: O=c1[nH]cc(F)c(=O)[nH]1 [5-FU, 5-fluorouracil]
- apoptosis rates versus quantity of Cyclin D1 [1]: the quantity of Cyclin D1 correlates with the decrease in the apoptosis rates
- levels of cleaved PARP [2]: increase

Compound: CCO [ethanol]
- induced apoptosis as a function of Cyclin D1 level [3]: increases with a low Cyclin D1 level
- cleavage of the PARP [3]: strong cleavage of the PARP

Compound: COCC(=O)O [MAA, methoxyacetic acid]
- Cyclin D1 in testicles (HTRF) (male germinal cells; 14 hours after intraperitoneal injection at 150 mg/kg, FIG. 13): decrease
- cleaved PARP rate in testicles (male germinal cells; [4]): increase
- germinal cell marker (Vasa) in testicles (male germinal cells; [4]): massive loss

Compound: CN[C@@H](C)Cc1ccccc1 [methamphetamine]
- quantity of Cyclin D1 in the substantia nigra (HTRF) (substantia nigra; CCND1Ntag/Ntag mice, 24 hours after intraperitoneal injection, FIG. 8): decreases
- cerebral lesions (substantia nigra; animals expressing little Cyclin D1, intraperitoneal 5 mg/kg): increase in cerebral lesions

Compound: CC(C)[C@H](NC(=O)c1ccc2ccccc2n1)C(=O)N[C@@H](CC(=O)O)C(=O)COc1c(F)cccc1F [Q-VD-Oph]
- apoptosis induced by 5-FU or ethanol ([1]; RAS and ErbB2 lines, Q-VD-Oph 20 μM, FIGS. 24 and 25): shunts the apoptosis

Compound: Cc1c2oc3c(C)ccc(C(=O)N[C@@H]4C(=O)N[C@H](C(C)C)C(=O)N5CCC[C@H]5C(=O)N(C)CC(=O)N(C)[C@@H](C(C)C)C(=O)O[C@@H]4C)c3nc-2c(C(=O)N[C@@H]2C(=O)N[C@H](C(C)C)C(=O)N3CCC[C@H]3C(=O)N(C)CC(=O)N(C)[C@@H](C(C)C)C(=O)O[C@@H]2C)c(N)c1=O [actinomycin D] (I: T[dV]P[Sar][NMeV] / II: T[dV]P[Sar][NMeV]; ester I:1-I:C, II:1-II:C; linker I:N-II:N via Actinocin(9to1))
- apoptosis rates versus quantity of Cyclin D1 [1]: the quantity of Cyclin D1 correlates with the decrease in the apoptosis rates
- induced apoptosis as a function of Cyclin D1 level [3]: increases with a low Cyclin D1 level
- cleavage of the PARP [3]: strong cleavage of the PARP
